From publication PMC5908784, “Extracellular loops 2 and 3 of the calcitonin receptor selectively modify agonist binding and efficacy” (Biochemical Pharmacology, 2018) come the findings set out here.

Substitutions are numbered along the chain they refer to. Where no end group is shown, it is not given here.

The term Ki denotes the dissociation constant of the complex between target and ligand, obtained from inhibition or displacement. A high value points to weaker binding.

Common to all, as to test: Homologous whole cell competition binding
What all share (details): homologous competition of 125I-sCT(8-32), whole cells, mean ± S.E.M., SEM

One assay concerns the target T1, hCTR V357A (Homo sapiens, UniProt P30988, V357A).
T1 construct: c-Myc (N); expressed in transfected cells
T1 sequence (P30988 25-474 V357A): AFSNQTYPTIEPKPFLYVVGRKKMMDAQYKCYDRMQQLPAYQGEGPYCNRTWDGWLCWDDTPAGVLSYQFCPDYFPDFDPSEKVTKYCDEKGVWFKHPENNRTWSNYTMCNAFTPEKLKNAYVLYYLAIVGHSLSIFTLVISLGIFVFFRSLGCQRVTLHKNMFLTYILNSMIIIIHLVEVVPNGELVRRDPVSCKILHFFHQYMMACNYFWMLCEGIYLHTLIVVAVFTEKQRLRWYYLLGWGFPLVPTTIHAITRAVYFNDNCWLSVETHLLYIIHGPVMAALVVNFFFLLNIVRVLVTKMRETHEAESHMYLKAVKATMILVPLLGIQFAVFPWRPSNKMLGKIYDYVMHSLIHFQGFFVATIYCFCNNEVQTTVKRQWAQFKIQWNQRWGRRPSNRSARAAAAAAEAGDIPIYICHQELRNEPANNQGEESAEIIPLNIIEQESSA
On the procedure:
(§1) Homologous radioligand competition was performed on 2.5 × 10^4 cells/well seeded into 96-well trays and cultured overnight. Cells were incubated overnight at 4 °C with two concentrations of ^125I-sCT(8-32) (between 25 and 100 pM; specific activity, 2000 Ci/mmol^9) and serial dilutions of non-iodinated sCT(8-32). Non-bound ligand was removed and bound ligand activity was measured using a γ counter (Wallac Wizard 1470 Gamma Counter, Perkin Elmer, 80% counter efficiency). Values were normalized against non-specific binding (0%) defined by the presence of 1 μM of unlabelled sCT(8-32), and total ligand bound in absence of competing sCT(8-32) (100%).
(§2) IC50 and Bmax values were estimated from competitive inhibition of ^125I-sCT(8-32) binding using a 3-parameter logistic equation (log(inhibitor versus response)) in Prism (v7; Graphpad). Data were corrected for radioligand occupancy using the Cheng-Prusoff equation in Prism; as such data are reported as pKi. Emax and EC50 were estimated from concentration-response curves using with a 3-parameter logistic equation in Prism (v7). These values are a composite of functional affinity, efficacy and stimulus response coupling. The Black and Leff operational model of agonism was applied to separate effects on pathway-specific efficacy (τ) from those that modify ligand functional affinity (pKA). Derived τ values were normalized to experimentally determined levels of cell surface expression to provide a measure of efficacy (τc) that is independent of affinity and altered cell surface receptor expression. pKi, pKA and log τc values for mutant receptors were statistically compared to those of the WT receptor using a one-way analysis of variance (ANOVA) and Dunnett’s post-test. Significance was accepted at P < 0.05.

The target in the next assay is T2, hCTR H296A (Homo sapiens, UniProt P30988, H296A).
T2 construct: c-Myc (N); expressed in transfected cells
T2 sequence (P30988 25-474 H296A): T1 sequence (P30988 25-474 V357A) with H272A, A333V
As to the method: as §1, §2

The target of a further assay is T3, hCTR K366A (Homo sapiens, UniProt P30988, K366A).
T3 construct: c-Myc (N); expressed in transfected cells
T3 sequence (P30988 25-474 K366A): T1 sequence (P30988 25-474 V357A) with A333V, K342A
On the procedure: as §1, §2

In another assay the target is T4, hCTR S364A (Homo sapiens, UniProt P30988, S364A).
T4 construct: c-Myc (N); expressed in transfected cells
T4 sequence (P30988 25-474 S364A): T1 sequence (P30988 25-474 V357A) with A333V, S340A
As to the method: as §1, §2

“VLGKLSQELHKLQTYPRTNTGSGTP-NH2 [sCT(8-32)]”: the Ki at hCTR V357A was 0.209 nM; on hCTR H296A, 0.269 nM; on hCTR K366A, 0.195 nM; on hCTR S364A, 0.191 nM.
